In test [1] the target is Angiopoietin-1 receptor (Homo sapiens) (UniProt Q02763). Briefly: Inhibition of human recombinant Tie2 at 15 nM related to control ULK1.
The target in test [2] is Serine/threonine-protein kinase SIK3 (Homo sapiens) (UniProt Q9Y2K2). In words: Inhibition of human recombinant QSK at 15 nM related to control ULK1.
The target of test [3] is Serine/threonine-protein kinase PAK 6 (Homo sapiens) (UniProt Q9NQU5). In words: Inhibition of human recombinant PAK6 at 15 nM related to control ULK1.
The target in test [4] is Tau-tubulin kinase 1 (Homo sapiens) (UniProt Q5TCY1). Briefly: Inhibition of human recombinant TTBK1 at 15 nM related to control ULK1.
Test [5] deals with Fibroblast growth factor receptor 1 (Homo sapiens) (UniProt P11362). In words: Inhibition of human recombinant FGFR1 at 15 nM related to control ULK1.
For test [6], the target named is T1, Serine/threonine-protein kinase TAO2 (Homo sapiens) (UniProt Q9UL54).
T1 sequence (whole entry): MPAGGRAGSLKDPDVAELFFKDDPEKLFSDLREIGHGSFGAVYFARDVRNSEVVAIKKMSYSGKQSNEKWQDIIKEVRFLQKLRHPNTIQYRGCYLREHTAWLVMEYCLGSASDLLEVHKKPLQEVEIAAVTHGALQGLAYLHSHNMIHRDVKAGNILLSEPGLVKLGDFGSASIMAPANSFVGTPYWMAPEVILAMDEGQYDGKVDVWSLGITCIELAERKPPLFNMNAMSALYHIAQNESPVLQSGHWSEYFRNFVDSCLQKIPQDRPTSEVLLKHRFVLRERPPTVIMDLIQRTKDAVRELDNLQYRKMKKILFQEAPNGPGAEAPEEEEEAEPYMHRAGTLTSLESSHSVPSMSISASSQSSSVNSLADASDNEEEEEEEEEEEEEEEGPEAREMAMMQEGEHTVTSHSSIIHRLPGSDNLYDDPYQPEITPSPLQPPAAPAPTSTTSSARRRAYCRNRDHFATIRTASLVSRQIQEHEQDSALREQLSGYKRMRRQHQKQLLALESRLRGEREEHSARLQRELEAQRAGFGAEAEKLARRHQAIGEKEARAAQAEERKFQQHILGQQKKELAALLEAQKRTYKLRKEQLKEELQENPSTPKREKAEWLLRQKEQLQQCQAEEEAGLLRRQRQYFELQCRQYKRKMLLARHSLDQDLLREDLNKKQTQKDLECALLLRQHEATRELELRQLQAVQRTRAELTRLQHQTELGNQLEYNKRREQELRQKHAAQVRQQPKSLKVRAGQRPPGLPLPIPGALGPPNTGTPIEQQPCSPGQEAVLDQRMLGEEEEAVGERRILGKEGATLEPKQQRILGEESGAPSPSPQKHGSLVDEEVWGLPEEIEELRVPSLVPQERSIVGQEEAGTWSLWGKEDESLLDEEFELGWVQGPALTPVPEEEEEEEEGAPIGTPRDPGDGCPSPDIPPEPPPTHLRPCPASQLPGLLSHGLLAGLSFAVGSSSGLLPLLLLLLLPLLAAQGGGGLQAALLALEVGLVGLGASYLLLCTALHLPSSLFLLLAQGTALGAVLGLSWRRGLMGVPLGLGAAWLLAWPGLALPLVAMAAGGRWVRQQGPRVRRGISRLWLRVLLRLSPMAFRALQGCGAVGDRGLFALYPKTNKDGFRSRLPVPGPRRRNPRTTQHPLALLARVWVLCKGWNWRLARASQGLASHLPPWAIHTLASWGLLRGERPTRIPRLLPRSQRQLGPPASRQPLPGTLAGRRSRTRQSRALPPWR
In words: Inhibition of human recombinant TAO2 at 40 nM in presence of ATP by radiometric assay relative to control.

Test [7] has as its target Serine/threonine-protein kinase PAK 4 (Homo sapiens) (UniProt O96013). In words: Inhibition of human recombinant PAK4 at 40 nM in presence of ATP by radiometric assay relative to control.
Test [8] addresses T2, Phosphorylase b kinase gamma catalytic chain, liver/testis isoform (Homo sapiens) (UniProt P15735).
T2 sequence (whole entry): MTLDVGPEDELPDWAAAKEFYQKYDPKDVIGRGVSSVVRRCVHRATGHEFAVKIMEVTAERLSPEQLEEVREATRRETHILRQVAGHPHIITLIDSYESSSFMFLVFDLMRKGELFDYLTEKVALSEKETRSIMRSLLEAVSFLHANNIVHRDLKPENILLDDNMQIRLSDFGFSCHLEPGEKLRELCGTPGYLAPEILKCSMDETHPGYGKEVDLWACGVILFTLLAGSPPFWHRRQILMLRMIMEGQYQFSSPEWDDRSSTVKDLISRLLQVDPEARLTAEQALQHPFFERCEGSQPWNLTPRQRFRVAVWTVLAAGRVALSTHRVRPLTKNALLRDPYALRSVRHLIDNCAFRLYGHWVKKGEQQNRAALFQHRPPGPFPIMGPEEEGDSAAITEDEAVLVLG
Briefly: Inhibition of human recombinant PHKg2 at 40 nM related to control ULK1.

Test [9] has as its target T3, Mitogen-activated protein kinase kinase kinase 7 (Homo sapiens) (UniProt O43318).
T3 sequence (whole entry): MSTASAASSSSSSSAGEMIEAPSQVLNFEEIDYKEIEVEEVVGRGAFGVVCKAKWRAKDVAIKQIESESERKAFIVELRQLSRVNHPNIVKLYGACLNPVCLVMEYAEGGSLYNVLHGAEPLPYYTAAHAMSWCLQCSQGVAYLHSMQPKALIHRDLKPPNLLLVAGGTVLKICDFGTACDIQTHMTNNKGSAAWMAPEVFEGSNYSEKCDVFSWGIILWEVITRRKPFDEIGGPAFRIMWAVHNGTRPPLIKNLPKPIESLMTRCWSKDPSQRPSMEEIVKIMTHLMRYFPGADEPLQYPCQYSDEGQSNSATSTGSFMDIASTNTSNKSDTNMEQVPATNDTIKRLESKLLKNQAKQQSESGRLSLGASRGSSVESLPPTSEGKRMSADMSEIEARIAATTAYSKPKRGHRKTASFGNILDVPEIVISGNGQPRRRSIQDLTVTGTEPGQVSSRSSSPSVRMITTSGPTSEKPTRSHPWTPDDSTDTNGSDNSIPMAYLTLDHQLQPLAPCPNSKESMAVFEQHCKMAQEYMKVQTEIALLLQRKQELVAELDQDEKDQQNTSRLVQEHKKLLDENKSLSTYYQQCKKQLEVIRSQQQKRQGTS
Briefly: Inhibition of human recombinant TAK1 at 500 nM related to control ULK1.

Sequence of Tau-tubulin kinase 1 (Homo sapiens) (Q5TCY1 whole entry): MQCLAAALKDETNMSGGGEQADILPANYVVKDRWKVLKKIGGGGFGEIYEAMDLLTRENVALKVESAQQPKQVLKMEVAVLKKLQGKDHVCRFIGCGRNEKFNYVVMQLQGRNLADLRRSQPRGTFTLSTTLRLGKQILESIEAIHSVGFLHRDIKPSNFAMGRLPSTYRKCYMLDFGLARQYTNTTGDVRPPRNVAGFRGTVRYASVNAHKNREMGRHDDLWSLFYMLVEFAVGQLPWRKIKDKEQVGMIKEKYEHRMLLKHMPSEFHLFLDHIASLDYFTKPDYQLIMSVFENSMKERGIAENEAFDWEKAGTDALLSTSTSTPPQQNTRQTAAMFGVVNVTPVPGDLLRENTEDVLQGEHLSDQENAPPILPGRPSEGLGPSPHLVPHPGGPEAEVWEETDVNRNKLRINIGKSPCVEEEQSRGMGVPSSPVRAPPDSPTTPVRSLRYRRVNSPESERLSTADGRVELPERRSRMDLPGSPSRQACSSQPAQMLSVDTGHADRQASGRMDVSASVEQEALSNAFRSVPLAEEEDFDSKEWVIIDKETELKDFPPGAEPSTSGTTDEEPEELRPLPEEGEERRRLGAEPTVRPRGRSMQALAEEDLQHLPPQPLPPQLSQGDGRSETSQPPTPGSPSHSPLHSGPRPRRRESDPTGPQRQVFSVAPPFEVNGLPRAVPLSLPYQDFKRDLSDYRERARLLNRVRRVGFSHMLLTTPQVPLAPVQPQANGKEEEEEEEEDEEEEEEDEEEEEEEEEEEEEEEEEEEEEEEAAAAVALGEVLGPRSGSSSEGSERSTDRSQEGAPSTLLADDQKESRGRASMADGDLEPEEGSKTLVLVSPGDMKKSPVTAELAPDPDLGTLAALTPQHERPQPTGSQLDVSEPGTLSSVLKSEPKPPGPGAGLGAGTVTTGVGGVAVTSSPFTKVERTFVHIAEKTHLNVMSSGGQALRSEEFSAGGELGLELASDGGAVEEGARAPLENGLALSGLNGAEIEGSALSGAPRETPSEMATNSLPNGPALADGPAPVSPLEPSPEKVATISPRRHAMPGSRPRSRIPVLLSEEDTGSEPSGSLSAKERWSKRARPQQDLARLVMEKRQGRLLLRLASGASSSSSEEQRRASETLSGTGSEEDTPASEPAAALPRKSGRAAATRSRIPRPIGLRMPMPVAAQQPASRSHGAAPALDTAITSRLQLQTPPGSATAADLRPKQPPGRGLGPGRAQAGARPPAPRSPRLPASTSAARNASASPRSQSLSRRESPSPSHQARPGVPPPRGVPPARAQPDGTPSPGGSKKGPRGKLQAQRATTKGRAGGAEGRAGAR
Sequence of Serine/threonine-protein kinase PAK 6 (Homo sapiens) (Q9NQU5 whole entry, looked up): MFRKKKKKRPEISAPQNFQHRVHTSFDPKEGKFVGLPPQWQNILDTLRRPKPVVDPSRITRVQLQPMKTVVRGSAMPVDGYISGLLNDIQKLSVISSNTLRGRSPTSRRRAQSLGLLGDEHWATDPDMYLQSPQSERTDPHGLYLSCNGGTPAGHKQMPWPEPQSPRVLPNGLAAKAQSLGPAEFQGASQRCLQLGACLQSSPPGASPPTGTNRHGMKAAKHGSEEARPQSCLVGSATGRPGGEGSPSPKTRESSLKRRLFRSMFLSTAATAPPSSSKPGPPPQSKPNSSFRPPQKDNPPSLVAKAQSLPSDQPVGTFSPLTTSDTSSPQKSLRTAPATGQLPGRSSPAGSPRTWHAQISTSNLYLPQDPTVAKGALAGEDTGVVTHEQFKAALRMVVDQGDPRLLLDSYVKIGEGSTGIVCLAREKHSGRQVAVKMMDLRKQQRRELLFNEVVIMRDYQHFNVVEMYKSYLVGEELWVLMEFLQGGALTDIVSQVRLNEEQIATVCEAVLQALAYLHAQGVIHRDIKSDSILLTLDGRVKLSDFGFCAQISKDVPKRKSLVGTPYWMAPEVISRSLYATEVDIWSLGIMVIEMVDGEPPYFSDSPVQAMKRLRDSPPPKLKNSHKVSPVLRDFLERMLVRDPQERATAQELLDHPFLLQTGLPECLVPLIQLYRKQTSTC
Sequence of Fibroblast growth factor receptor 1 (Homo sapiens) (P11362 22-822 limits assumed): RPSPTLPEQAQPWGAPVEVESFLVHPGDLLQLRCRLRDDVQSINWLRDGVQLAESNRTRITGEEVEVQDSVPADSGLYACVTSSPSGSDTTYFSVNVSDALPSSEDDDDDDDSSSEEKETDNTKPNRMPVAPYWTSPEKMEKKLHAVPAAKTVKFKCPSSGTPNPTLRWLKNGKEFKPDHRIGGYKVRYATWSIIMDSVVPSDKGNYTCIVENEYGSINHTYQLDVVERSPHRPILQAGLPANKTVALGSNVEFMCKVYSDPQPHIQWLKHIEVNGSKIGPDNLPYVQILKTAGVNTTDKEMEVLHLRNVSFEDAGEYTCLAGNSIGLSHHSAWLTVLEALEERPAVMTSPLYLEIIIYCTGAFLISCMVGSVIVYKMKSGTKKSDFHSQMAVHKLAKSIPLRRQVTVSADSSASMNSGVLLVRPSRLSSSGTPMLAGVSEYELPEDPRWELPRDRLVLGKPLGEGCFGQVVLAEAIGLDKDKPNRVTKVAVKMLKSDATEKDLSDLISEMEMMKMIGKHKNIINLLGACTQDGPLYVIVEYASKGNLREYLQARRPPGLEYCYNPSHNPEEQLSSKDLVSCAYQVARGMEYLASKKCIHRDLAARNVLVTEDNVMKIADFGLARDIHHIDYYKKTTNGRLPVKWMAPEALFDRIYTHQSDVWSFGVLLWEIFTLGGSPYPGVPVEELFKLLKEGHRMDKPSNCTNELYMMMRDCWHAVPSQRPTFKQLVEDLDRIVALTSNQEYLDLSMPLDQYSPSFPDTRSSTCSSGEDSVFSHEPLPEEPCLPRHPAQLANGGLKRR
Sequence of Serine/threonine-protein kinase SIK3 (Homo sapiens) (Q9Y2K2 whole entry, looked up): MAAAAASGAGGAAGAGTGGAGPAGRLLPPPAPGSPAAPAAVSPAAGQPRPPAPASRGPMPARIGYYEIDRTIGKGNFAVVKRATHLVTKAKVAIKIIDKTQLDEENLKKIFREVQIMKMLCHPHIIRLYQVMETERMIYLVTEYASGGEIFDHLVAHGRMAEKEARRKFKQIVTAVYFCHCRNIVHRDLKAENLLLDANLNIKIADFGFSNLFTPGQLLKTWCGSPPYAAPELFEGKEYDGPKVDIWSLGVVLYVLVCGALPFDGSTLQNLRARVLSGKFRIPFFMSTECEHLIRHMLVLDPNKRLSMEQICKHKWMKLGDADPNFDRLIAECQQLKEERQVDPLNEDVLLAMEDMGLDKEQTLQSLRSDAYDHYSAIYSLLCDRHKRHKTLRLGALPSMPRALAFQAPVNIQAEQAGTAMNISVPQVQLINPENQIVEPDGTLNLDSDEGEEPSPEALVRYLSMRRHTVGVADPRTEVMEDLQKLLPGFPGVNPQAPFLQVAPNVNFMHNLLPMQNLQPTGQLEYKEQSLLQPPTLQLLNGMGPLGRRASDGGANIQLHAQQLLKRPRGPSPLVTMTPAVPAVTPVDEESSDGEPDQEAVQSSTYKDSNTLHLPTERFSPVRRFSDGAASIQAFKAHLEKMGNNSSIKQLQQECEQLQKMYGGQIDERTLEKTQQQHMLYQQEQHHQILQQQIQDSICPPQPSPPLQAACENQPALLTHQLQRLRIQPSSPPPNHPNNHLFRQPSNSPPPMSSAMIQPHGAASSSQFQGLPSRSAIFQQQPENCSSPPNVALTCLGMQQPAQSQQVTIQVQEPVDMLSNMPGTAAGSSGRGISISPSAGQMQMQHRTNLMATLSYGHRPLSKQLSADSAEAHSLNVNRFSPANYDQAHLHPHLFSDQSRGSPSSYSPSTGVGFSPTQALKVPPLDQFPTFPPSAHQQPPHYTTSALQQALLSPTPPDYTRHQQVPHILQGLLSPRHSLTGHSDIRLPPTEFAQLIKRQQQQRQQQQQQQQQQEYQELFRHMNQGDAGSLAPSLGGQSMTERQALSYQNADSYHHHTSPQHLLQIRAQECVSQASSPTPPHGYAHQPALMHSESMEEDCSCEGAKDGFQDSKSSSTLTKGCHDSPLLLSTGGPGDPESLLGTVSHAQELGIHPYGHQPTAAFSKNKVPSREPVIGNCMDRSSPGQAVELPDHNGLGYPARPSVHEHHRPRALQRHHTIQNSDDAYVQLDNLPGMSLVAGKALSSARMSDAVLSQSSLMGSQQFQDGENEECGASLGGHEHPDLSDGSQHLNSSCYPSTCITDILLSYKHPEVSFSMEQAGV
Sequence of Serine/threonine-protein kinase PAK 4 (Homo sapiens) (O96013 whole entry, looked up, canonical isoform): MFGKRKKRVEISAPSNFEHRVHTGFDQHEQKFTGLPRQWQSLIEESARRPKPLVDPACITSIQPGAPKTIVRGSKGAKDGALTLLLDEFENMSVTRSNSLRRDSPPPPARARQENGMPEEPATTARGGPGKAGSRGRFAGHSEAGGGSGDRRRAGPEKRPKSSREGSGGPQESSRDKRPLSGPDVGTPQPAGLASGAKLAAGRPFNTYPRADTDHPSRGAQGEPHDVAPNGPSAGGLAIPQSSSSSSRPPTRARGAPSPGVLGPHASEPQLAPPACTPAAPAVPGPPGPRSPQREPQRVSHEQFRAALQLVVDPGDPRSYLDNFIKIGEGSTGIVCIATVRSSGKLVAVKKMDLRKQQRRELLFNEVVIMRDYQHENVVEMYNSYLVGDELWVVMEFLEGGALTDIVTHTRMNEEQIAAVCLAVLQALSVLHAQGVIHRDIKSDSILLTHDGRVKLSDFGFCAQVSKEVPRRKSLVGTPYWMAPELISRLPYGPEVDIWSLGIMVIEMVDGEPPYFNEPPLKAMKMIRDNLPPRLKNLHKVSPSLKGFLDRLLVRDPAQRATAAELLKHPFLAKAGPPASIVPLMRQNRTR

Take `CC(C)[C@H](NC(=O)c1cc(-c2cnn3cc(-c4ccc(OCCN5CCCCC5)cc4)cnc23)cs1)C(F)(F)F`: the fold change (FC) in test [1] was found to be 0; in test [2] it was 0.98; in test [3], 0; in [4], 0; in test [5], 0.
A word on the inhibition: it is the percentage by which the read-out fell short of the control. As for `O=C(N[C@@H](C1CC1)C(F)(F)F)c1cc(-c2cnn3cc(-c4ccc(F)cc4)cnc23)cs1`, the inhibition is 3% in test [6] and 8% in test [7]. For the same compound, the fold change (FC) in test [8] turned out to be 0.
Turning to `CNC(=O)c1ccccc1Oc1nc(Nc2cc(OC)c(OC)c(OC)c2)ncc1Br`, the fold change (FC) in test [9] stood at 0.03.

Source of the values: ChEMBL document CHEMBL5653631, “A Potent and Selective ULK1 Inhibitor Suppresses Autophagy and Sensitizes Cancer Cells to Nutrient Stress” (iScience, 2018).
